# Experimental data from patent US20100255580A1, “Differentiation of Human Embryonic Stem Cells” (LIFESCCAN, INC., priority 2007, published 2010).
# Test system: H9 embryonic stem cells
# Type: cell-based, human
# Details: low serum, on MEFS
# Experimental: Controls for each group included cells plated on […]-coated dishes and cultured in MEF-conditioned medium or cells plated on MEFs and cultured in ES medium. All groups contained three biological replicates and each biological replicate was repeated on two separate gene chips.
# Sample preparation, hybridization, and image analysis were performed according to the Affymetrix Human Genome U133 Plus 2.0 Array. Following normalization and a log transformation, data analysis was performed using OmniViz® software (MA) and […] (VizXLabs, WA). Significant differences in gene expression between the samples were evaluated using analysis of variance and an F-test with adjusted P-value (Benjamini and
# Hochberg correction) of ≦b 0.05. Only genes with a present call in at least one group were included in the analysis.
substance,measurement,value
Activin A: a member of the TGFβ superfamily; R&D Systems; Group 2 = Activin A (100 ng/ml),"log intensity, bHLH factor Hes4 (LOC57801)",2.4
same,"log intensity, beta3GalNAcT-1 mRNA for globoside synthase, clone: type 2",−0.0984
same,"log intensity, bone morphogenetic protein 2 (BMP2)",5.029
same,"log intensity, bone morphogenetic protein 5 (BMP5)",0.6148
same,"log intensity, bromodomain and PHD finger containing, 3",0.3694
same,"log intensity, c-mer proto-oncogene tyrosine kinase (MERTK)",3.617
same,"log intensity, cDNA FLJ11390 fis, clone HEMBA1000561",0.3644
same,"log intensity, cDNA FLJ13221 fis, clone NT2RP4002075",1.082
same,"log intensity, cDNA FLJ13392 fis, clone PLACE1001280",1.169
same,"log intensity, cDNA FLJ13810 fis, clone THYRO1000279",−0.8532
same,"log intensity, cDNA FLJ30081 fis, clone BGGI12000693",1.125
same,"log intensity, cDNA FLJ34035 fis, clone FCBBF2004788",−2.008
same,"log intensity, cDNA FLJ36116 fis, clone TESTI2022338",6.155
same,"log intensity, cDNA: FLJ22731 fis, clone HSI15841",2.241
same,"log intensity, cDNA: FLJ22808 fis, clone KAIA2925",2.414
same,"log intensity, cDNA: FLJ23067 fis, clone LNG04993",0.8825
same,"log intensity, calmegin (CLGN)",3.111
same,"log intensity, cardiac ankyrin repeat protein (CARP)",1.987
same,"log intensity, cartilage linking protein 1",0.9872
same,"log intensity, caspase-like apoptosis regulatory protein 2 (clarp)",5.2167
same,"log intensity, chemokine receptor CXCR4 mRNA",5.669
same,"log intensity, cleft lip and palate associated transmembrane protein 1, clone MGC: 10593",0.5567
same,"log intensity, clone FLC1492 PRO3121 mRNA",−3.392
same,"log intensity, clone HB-2 mRNA sequence",1.252
same,"log intensity, clone IMAGE: 3509274, mRNA, partial cds",0.7945
same,"log intensity, clone IMAGE: 4047715, mRNA",1.527
same,"log intensity, clone MGC: 14801",1.511
same,"log intensity, clone MGC: 24252 IMAGE: 3932604",1.593
same,"log intensity, clone TUA8 Cri-du-chat region mRNA",1.497
same,"log intensity, collagen, type V, alpha 1",1.666
same,"log intensity, complement component 5 (C5)",1.596
same,"log intensity, core histone macroH2A2.2 (MACROH2A2)",3.662
same,"log intensity, cystatin C (amyloid angiopathy and cerebral hemorrhage) (CST3)",3.52
same,"log intensity, deiodinase, iodothyronine, type III (DIO3)",4.229
same,"log intensity, dickkopf (Xenopus laevis) homolog 1 (DKK1)",1.09
same,"log intensity, dual specificity phosphatase 4, clone MGC: 3713",5.601
same,"log intensity, dynein, axonemal, light polypeptide 4 (DNAL4)",1.8494
same,"log intensity, dystrophin (muscular dystrophy, Duchenne and Becker types) (DMD), transcript variant Dp427p2",3.044
same,"log intensity, ectodermal dysplasia 1, anhidrotic (ED1)",3.078
same,"log intensity, elongation of very long chain fatty acids (FEN1Elo2, SUR4Elo3, yeast)-like 2 (ELOVL2)",1.508
same,"log intensity, endothelin receptor type A (EDNRA), mRNA",3.552
same,"log intensity, endothelin receptor type A (r1027)",1.954
same,"log intensity, enolase 2, (gamma, neuronal) (ENO2)",3.926
same,"log intensity, eomesodermin (Xenopus laevis) homolog (EOMES)",4.898
same,"log intensity, erythrocyte membrane protein band 4.9 (dematin) (EPB49)",0.9238
same,"log intensity, fasciculation and elongation protein zeta 1 (zygin I) (FEZ1), transcript variant 1",2.203
same,"log intensity, forkhead box F2 (FOXF2)",−1.115
same,"log intensity, gelsolin (amyloidosis, Finnish type) (GSN)",4.45
same,"log intensity, glucose-6-phosphate transporter (G6PT) gene, G6PT-Dt allele",0.4077
same,"log intensity, glutathione S-transferase A2 (GSTA2)",−0.4221
same,"log intensity, glycoprotein M6A",2.3278
same,"log intensity, guanylate cyclase activator 1B (retina) (GUCA1B)",0.685
same,"log intensity, heparan sulfate proteoglycan 2 (perlecan)",−0.9721
same,"log intensity, hexabrachion (tenascin C, cytotactin) (HXB)",2.854
same,"log intensity, high mobility group protein-R",0.09529
same,"log intensity, hypothetical protein BC017868 (LOC159091)",0.4016
same,"log intensity, hypothetical protein DKFZp434F0318",0.3947
same,"log intensity, hypothetical protein DKFZp434F2322",1.421
same,"log intensity, hypothetical protein DKFZp564B052",2.003
same,"log intensity, hypothetical protein FLJ10312",4.892
same,"log intensity, hypothetical protein FLJ11155",−0.7126
same,"log intensity, hypothetical protein FLJ11560",1.807
same,"log intensity, hypothetical protein FLJ12538 similar to ras-related protein RAB17",4.734
same,"log intensity, hypothetical protein FLJ12666 (r758)",1.405
same,"log intensity, hypothetical protein FLJ12666 (r998)",4.028
same,"log intensity, hypothetical protein FLJ12838",3.152
same,"log intensity, hypothetical protein FLJ21195 similar to protein related to DAC and cerberus",0.764
same,"log intensity, hypothetical protein FLJ22471",3.1349
same,"log intensity, hypothetical protein FLJ23091",3.042
same,"log intensity, hypothetical protein FLJ23514",5.247
same,"log intensity, hypothetical protein FLJ32835",3.947
same,"log intensity, hypothetical protein MGC2865, clone MGC: 20246",−1.506
same,"log intensity, insulin-like growth factor binding protein 6 (IGFBP6)",3.304
same,"log intensity, keratin 19 (KRT19)",5.919
same,"log intensity, kidney-specific membrane protein NX-17",3.45
same,"log intensity, lipase mRNA",0.5585
same,"log intensity, lymphocyte antigen 6 complex, locus E (LY6E)",4.926
same,"log intensity, mRNA for KIAA0876 protein",0.07325
same,"log intensity, mRNA for KIAA1161 protein",1.981
same,"log intensity, mRNA for MSX-2",1.945
same,"log intensity, mRNA for protein-tyrosine kinase",1.042
same,"log intensity, mRNA; cDNA DKFZp434E082",2.943
same,"log intensity, mRNA; cDNA DKFZp434K0621",2.214
same,"log intensity, mRNA; cDNA DKFZp434P228",3.113
same,"log intensity, mRNA; cDNA DKFZp547H236",2.081
same,"log intensity, mRNA; cDNA DKFZp564K1672",6.335
same,"log intensity, mRNA; cDNA DKFZp586G2120",0.523
same,"log intensity, mRNA; cDNA DKFZp586L0120",1.28
same,"log intensity, mRNA; cDNA DKFZp762H185",3.792
same,"log intensity, mandaselin long form",1.2296
same,"log intensity, matrix metalloproteinase 15 (membrane-inserted) (MMP15)",1.8336
same,"log intensity, microseminoprotein, beta-(MSMB)",0.1699
same,"log intensity, mitogen-activated protein kinase 10 (MAPK10)",2.286
same,"log intensity, nuclear factor of kappa light polypeptide gene enhancer in B-cells inhibitor, alpha",5.478
same,"log intensity, nuclear receptor subfamily 0, group B, member 1 (NR0B1) (r534)",1.279
same,"log intensity, nuclear receptor subfamily 0, group B, member 1 (NR0B1) (r1079)",3.298
same,"log intensity, nudix (nucleoside diphosphate linked moiety X)-type motif 4",5.689
same,"log intensity, olfactory receptor, family 52, subfamily A, member 1 (OR52A1)",0.6365
same,"log intensity, oxoglutarate dehydrogenase (lipoamide) (OGDH)",−0.3853
same,"log intensity, partial LHX9 gene for LIM-homeobox 9, 3UTR",−0.1342
same,"log intensity, partial mRNA for putative nuclear factor",2.679
same,"log intensity, phosphatidylinositol-4-phosphate 5-kinase, type I, beta (PIP5K1B)",2.467
same,"log intensity, phosphofructokinase, liver (PFKL)",2.704
same,"log intensity, pilin-like transcription factor (PILB)",4.382
same,"log intensity, pleiomorphic adenoma gene-like 1",0.2215
same,"log intensity, plexin A2",2.742
same,"log intensity, polycythemia rubra vera 1; cell surface receptor (PRV1)",0.9374
same,"log intensity, porcupine (MG61)",3.681
same,"log intensity, protease, serine, 4 (trypsin 4, brain)",3.359
same,"log intensity, protein S (alpha) (PROS1)",1.7883
same,"log intensity, protocadherin 10",2.986
same,"log intensity, putative 47 kDa protein (r448)",1.052
same,"log intensity, putative 47 kDa protein (r770)",0.8617
same,"log intensity, putative sterol reductase SR-1 (TM7SF2)",2.478
same,"log intensity, ras homolog gene family, member B",0.07189
same,"log intensity, receptor tyrosine kinase-like orphan receptor 2 (ROR2)",3.056
same,"log intensity, regulator of G protein signalling 5 (RGS5)",3.951
same,"log intensity, ret finger protein-like 2 (RFPL2)",0.5039
same,"log intensity, secreted apoptosis related protein 2 (SARP2)",5.743
same,"log intensity, secreted frizzled-related protein 1",4.218
same,"log intensity, sialyltransferase (STHM)",1.503
same,"log intensity, signal transducer and activator of transcription 3 (acute-phase response factor)",0.5602
same,"log intensity, singed (Drosophila)-like (sea urchin fascin homolog like) (SNL)",5.254
same,"log intensity, sodium dependent phosphate transporter isoform NaPi-IIb",0.232
same,"log intensity, solute carrier (SLC25A18)",−1.1
same,"log intensity, solute carrier family 9 (sodiumhydrogen exchanger), isoform 5 (SLC9A5)",1.196
same,"log intensity, stanniocalcin 1 (STC1), mRNA",5.28
same,"log intensity, stanniocalcin 1 (r1113)",5.701
same,"log intensity, testican 3 (HSAJ1454)",1.551
same,"log intensity, testis enhanced gene transcript (BAX inhibitor 1)",1.317
same,"log intensity, thyrotropin-releasing hormone (TRH)",−0.2584
same,"log intensity, transcription factor 2, hepatic; LF-B3; variant hepatic nuclear factor (TCF2), transcript variant a",2.543
same,"log intensity, transcriptional activator of the c-fos promoter (CROC4)",3.225
same,"log intensity, transmembrane tyrosine kinase mRNA",1.932
same,"log intensity, tropomodulin, clone MGC: 3643",1.464
same,"log intensity, tryptase, alpha",3.764
same,"log intensity, tudor repeat associator with PCTAIRE 2",3.275
same,"log intensity, tyrosine 3-monooxygenasetryptophan 5-monooxygenase activation protein, eta polypeptide (r705)",4.608
same,"log intensity, tyrosine 3-monooxygenasetryptophan 5-monooxygenase activation protein, eta polypeptide (r966)",4.926
